# Measured values published in patent US8067454B2, “Thio-substituted Anthra [1, 2-d] imidazole- 6, 11-dione derivatives, preparation method and application thereof” (National Defense Medical Center, priority 2010, dated 2011).
# Legend:
# [1] = test system: SVG p12, GBM8401 and GBM8901; assay: MTT assay, normal cell versus tumor cells (categories 39-3 to 39-7); details: tumor cell survival rate less than 80%; for category 39-4: survival rate higher than 80% for normal cell SVG p12 and only inhibits growth of tumor cell GBM8401: FIG. 5B
# [2] = test system: GBM8401; assay: MTT assay, GBM8401 tumor cell; details: concentration 10 μM, tumor cell
# [3] = test system: telomerase (total cell lysates of lung cancer cell line H1299); assay: Telomeric Repeat Amplification Protocol (TRAP) assay, screen of telomerase inhibitors; type: biochemical, human; details: 10 μM
# Procedure: Telomeric Repeat Amplification Protocol (TRAP) Assay:
# Telomerase activity was detected by a modified version of the general TRAP protocol. Telomerase products were resolved by 10% polyacrylamide gel electrophoresis and visualized by staining with SYBER Green. As a source of telomerase, the total cell lysates derived from lung cancer cell line H1299 cells were used. Protein concentration of the lysates was assayed using Bio-Rad protein assay kit using BSA standards.
# In the TRAP assay, if a compound can stabilize the G-quadruplex structure such that telomerase can not act on telomere, then the effect of inhibiting the telomerase can be achieved. In the FIG. 2A to FIG. 2C, DMSO treatment represents as the positive control group (P); while a negative control group (N) used 5 μl of 0.1 mg/ml RNase A (CLONTECH) in the assay. It could be observed that a number of telomeric fragments were detected in the positive control group (P), while none was detected in the negative control group (N). 10 μM was selected as the concentration used to screen compounds.
# [4] = test system: GBM8901; assay: MTT assay, GBM8901 tumor cell; details: concentration 10 μM, tumor cell
# [5] = test system: SVG p12; assay: MTT assay, SVG p12 normal cell; details: for Cell survival rate (%) SVG p12: concentration 10 μM, normal cell
Compound,category 39-5: survival rate higher than 80% for normal cell SVG p12 and only inhibits growth of tumor cell GBM8901 ([1]; FIG. 5C),Cell survival rate (%) GBM8401 [2],inhibition effect against telomerase [3],Cell survival rate (%) GBM8901 [4],Cell survival rate (%) SVG p12 [5],category 39-3: survival rate higher than 80% for normal cell SVG p12 and inhibits growth of both tumor cells GBM8401 and GBM8901 ([1]; FIG. 5A),without cell toxicity for normal cell SVGP p12 ([5]; survival rate higher than 80%),category 39-4: survival rate higher than 80% for normal cell SVG p12 and only inhibits growth of tumor cell GBM8401 [1]
"O=C1c2ccccc2C(=O)c2c1ccc1nc(SCCCCCBr)[nH]c21 [f1-9, 2-(5-bromopentylthio)-1H-anthra[1,2-d]imidazole-6,11-dione]",in this category,62 ± 19%,exhibited inhibition effect against telomerase,–,–,–,–,–
"O=C1c2ccccc2C(=O)c2c1ccc1nc(SCCN3CCCCC3)[nH]c21 [f1-12, 2-(2-(Piperidin-1-yl)ethylthio)-1H-anthra[1,2-d]imidazole-6,11-dione]",–,6 ± 13%,exhibited inhibition effect against telomerase,42 ± 8%,22 ± 8%,–,–,–
"CCN(CC)C(=O)CSc1nc2ccc3c(c2[nH]1)C(=O)c1ccccc1C3=O [f1-18, 2-(6,11-dioxo-6,11-dihydro-1H-anthra[1,2-d]imidazol-2-ylthio)-N,N-diethylacetamide]",–,23 ± 13%,exhibited inhibition effect against telomerase,42 ± 3%,65 ± 3%,–,–,–
"C=CCSc1nc2ccc3c(c2[nH]1)C(=O)c1ccccc1C3=O [f1-19, 2-(allylthio)-1H-anthra[1,2-d]imidazole-6,11-dione]",–,42 ± 18%,exhibited inhibition effect against telomerase,50 ± 6%,89 ± 5%,in this category,without cell toxicity for normal cell SVGP p12,–
"O=C1c2ccccc2C(=O)c2c1ccc1nc(SCC(=O)N3CCCC3)[nH]c21 [f1-21, 2-(2-oxo-2-(pyrrolidin-1-yl)ethylthio)-1H-anthra[1,2-d]imidazole-6,11-dione]",–,30 ± 10%,exhibited inhibition effect against telomerase,38 ± 5%,63 ± 1%,–,–,–
"O=C(Sc1nc2ccc3c(c2[nH]1)C(=O)c1ccccc1C3=O)c1ccccc1[N+](=O)[O-] [f2-1, S-6,11-dioxo-6,11-dihydro-1H-anthra[1,2-d]imidazol-2-yl 2-nitrobenzothioate]",–,–,exhibited inhibition effect against telomerase,58 ± 3%,–,–,–,in this category
"O=C1c2ccccc2C(=O)c2c1ccc1nc(SC(=O)N3CCOCC3)[nH]c21 [f2-2, S-6,11-dioxo-6,11-dihydro-1H-anthra[1,2-d]imidazol-2-yl morpholine-4-carbothioate]",–,92 ± 11%,exhibited inhibition effect against telomerase,43 ± 2%,96 ± 7%,–,–,–
"CN1CCN(C(=O)Sc2nc3ccc4c(c3[nH]2)C(=O)c2ccccc2C4=O)CC1 [f2-3, S-6,11-dioxo-6,11-dihydro-1H-anthra[1,2-d]imidazol-2-yl 4-methylpiperazine-1-carbothioate]",–,62 ± 11%,exhibited inhibition effect against telomerase,38 ± 2%,62 ± 3%,–,–,–
"Cc1cc(C(=O)Sc2nc3ccc4c(c3[nH]2)C(=O)c2ccccc2C4=O)c(C)o1 [f2-6, S-6,11-dioxo-6,11-dihydro-1H-anthra[1,2-d]imidazol-2-yl 2,5-dimethylfuran-3-carbothioate]",–,–,exhibited inhibition effect against telomerase,38 ± 7%,–,–,–,in this category
